In PMC10916518 (Drug Design, Development and Therapy, 2024):
Converted amounts (≈) assume the structure as drawn.

Tests used:
RD cells = assay: Cytotoxicity of medicines by CCK-8; format: cell-based, human; settings: 48 h
EV71 [1] = settings: Vero cells pretreated with 200 μM before infection; cited from earlier work
EV71 [2] = assay: Inhibition of cell death caused by EV71 infection; format: cell-based, Enterovirus 71; settings: Enterovirus A, EV71, RD, 48 h
[3] = Cytotoxicity of medicines by CCK-8; format: cell-based, human; settings: human, RD cells

`O=C(O)/C=C/c1ccc(O)c(O)c1` [Caffeic acid] gave an MNTC (RD cells) of 50.00 µg/mL.
In the case of `C[C@@H]1O[C@@H](OC[C@H]2O[C@@H](Oc3c(-c4ccc(O)c(O)c4)oc4cc(O)cc(O)c4c3=O)[C@H](O)[C@@H](O)[C@@H]2O)[C@H](O)[C@H](O)[C@H]1O` [Rutin, rutin], the “EV71-induced CPE and viral replication” value (EV71 [1]) is given as “significantly suppress” and the MNTC (RD cells) is given as 200.00 µg/mL.
`O=C(/C=C/c1ccc(O)c(O)c1)O[C@H]1[C@H](O)C[C@](O)(C(=O)O)C[C@H]1O` [Cryptochlorogenic acid, cryptochlorogenic acid] showed an MNTC (RD cells) of 100.00 µg/mL.
Compound `O=C(/C=C/c1ccc(O)c(O)c1)O[C@H](Cc1ccc(O)c(O)c1)C(=O)O` [Rosmarinic acid, rosmarinic acid] has an IC50 (EV71 [2]) of 11.9 µg/mL (≈ 33 µM) and an MNTC (RD cells) of 50.00 µg/mL.
Work on `O=c1c(O[C@@H]2O[C@H](CO)[C@@H](O)[C@H](O)[C@H]2O)c(-c2ccc(O)cc2)oc2cc(O)cc(O)c12` [Astragalin] yielded an MNTC (RD cells) of 200.00 µg/mL.
`O=c1c(O[C@@H]2O[C@H](CO)[C@H](O)[C@H](O)[C@H]2O)c(-c2ccc(O)c(O)c2)oc2cc(O)cc(O)c12` [Hyperoside] gave an MNTC (RD cells) of 200.00 µg/mL.
With `NC(=O)c1ncn([C@@H]2O[C@H](CO)[C@@H](O)[C@H]2O)n1` [ribavirin, Ribavirin, reference compound] the IC50 (EV71 [2]) was 290 µg/mL (≈ 1190 µM), the “MNTC (maximum non-toxic concentration)” value (RD cells; cell survival rate ≥ 90%) was 1 mg/mL and the CC50 at 48 h [3] was 2430 µg/mL (≈ 9950 µM).
`O=C(O)c1cc(O)c(O)c(O)c1` [Gallic acid, gallic acid] showed an MNTC (RD cells) of 6.25 µg/mL.
